# Test results reported in patent EP0177710A1, “Phenyl urea derivatives” (BAYER AG, priority 1984, dated 1986).
# System: Unkräutern in Mais
# Assay: Post-emergence test / greenhouse
# Assay type: in vivo
# Conditions: post-emergence spray, control of weeds in maize, rated after three weeks; compared with comparison substance (A)
# Source text: Post-emergence-Test/Gewächshaus
# Lösungsmittel: 5 Gewichtsteile Aceton
# Emulgator: 1 Gewichtsteil Alkylarylpolyglykolether
# Zur Herstellung einer zweckmäßigen Wirkstoffzubereitung vermischt man 1 Gewichtsteil Wirkstoff mit der angegebenen Menge Lösungsmittel, gibt die angegebene Menge Emulgator zu und verdünnt das Konzentrat mit Wasser auf die gewünschte Konzentration.
# Mit der Wirkstoffzubereitung spritzt man Testpflanzen, welche eine Höhe von 5 - 15 cm haben so, daß die jeweils gewünschten Wirkstoffmengen pro Flächeneinheit ausgebracht werden. Die Konzentration der Spritzbrühe wird so gewählt, daß in 2000 1 Wasser/ha die jeweils gewünschten Wirkstoffmengen ausgebracht werden. Nach drei Wochen wird der Schädigungsgrad der Pflanzen bonitiert in % Schädigung im Vergleich zur Entwicklung der unbehandelten Kontrolle.
# Es bedeuten: • O % = keine Wirkung (wie unbehandelte Kontrolle) 100 % = totale Vernichtung
structure (smiles),measurement,value
CC(C)n1cc(Oc2ccc(NC(=O)N(C)C)cc2)cn1 [I-1],selektive herbizide Wirksamkeit,bessere selektive herbizide Wirksamkeit
